Measured values: PMC5129534, “Selective Enzymatic Transformation to Aldehydes in vivo by Fungal Carboxylate Reductase from Neurospora crassa” (Advanced Synthesis & Catalysis, 2016)
Each block holds one molecule with its values, some of them ahead of it.

Key:
NcCAR [1] = target: T1, NcCAR (Neurospora crassa, UniProt Q7RW48); assay: time-resolved […] NMR of cinnamic acid reduction; relief of inhibition by pyrophosphatase; type: biochemical; details: co-product inhibition, inferred, ATP, NADPH, MgCl2, Tris-HCl pH 7.5
T1 construct: gene NCU05000; full length, codon-optimized gene, N-terminal TEV-cleavable His-tag (removed for kinetics), pETDUET1, co-expressed with E. coli phosphopantetheinyl transferase (CAQ31055.1) in E. coli BL21 (DE3) Star; 120 kDa

O=C(O)c1ccc2c(c1)OCO2 = assay: purified protein; type: biochemical, Neurospora crassa; details: apparent, ATP, NADPH, MgCl2, MES buffer pH 6.0, 28 °C, substrate in water with equimolar KOH
NcCAR [2] = target: T1, NcCAR; assay: spectrophotometric NADPH depletion assay, […] nm, initial rates; type: biochemical; details: apparent, ATP, MgCl2, MES buffer pH 6.0, 28 °C, 5% v/v DMSO

T1 sequence (Q7RW48 whole entry): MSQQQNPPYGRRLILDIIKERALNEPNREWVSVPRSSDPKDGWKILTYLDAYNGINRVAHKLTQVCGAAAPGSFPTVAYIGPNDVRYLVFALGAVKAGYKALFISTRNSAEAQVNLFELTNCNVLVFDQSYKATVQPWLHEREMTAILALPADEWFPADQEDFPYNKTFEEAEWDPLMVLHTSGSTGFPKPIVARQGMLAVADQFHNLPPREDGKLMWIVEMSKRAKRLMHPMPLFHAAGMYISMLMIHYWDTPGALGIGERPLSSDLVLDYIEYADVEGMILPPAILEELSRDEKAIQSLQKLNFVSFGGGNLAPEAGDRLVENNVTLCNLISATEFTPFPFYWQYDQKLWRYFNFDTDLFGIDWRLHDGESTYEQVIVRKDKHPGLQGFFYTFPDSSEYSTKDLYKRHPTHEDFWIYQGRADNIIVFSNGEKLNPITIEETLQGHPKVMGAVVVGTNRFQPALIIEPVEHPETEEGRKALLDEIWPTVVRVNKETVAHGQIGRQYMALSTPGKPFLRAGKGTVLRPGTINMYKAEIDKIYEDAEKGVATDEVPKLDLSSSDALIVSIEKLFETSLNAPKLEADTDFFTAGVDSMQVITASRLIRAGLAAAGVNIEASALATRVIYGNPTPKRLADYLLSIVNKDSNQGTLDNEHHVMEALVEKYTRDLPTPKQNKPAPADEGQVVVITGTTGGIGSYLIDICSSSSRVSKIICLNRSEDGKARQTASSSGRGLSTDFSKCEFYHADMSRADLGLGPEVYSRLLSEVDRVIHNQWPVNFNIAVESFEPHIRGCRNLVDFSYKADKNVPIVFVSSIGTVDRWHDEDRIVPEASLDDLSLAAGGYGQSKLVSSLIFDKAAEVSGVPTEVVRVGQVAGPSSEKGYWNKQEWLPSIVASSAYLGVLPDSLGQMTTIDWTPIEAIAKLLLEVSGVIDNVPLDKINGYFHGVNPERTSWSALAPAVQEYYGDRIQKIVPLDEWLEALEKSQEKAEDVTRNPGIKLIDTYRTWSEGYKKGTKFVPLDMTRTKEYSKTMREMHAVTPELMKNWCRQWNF

Molecule: O=P(O)(O)OP(=O)(O)O [pyrophosphate]
time-resolved 31P NMR of cinnamic acid reduction; relief of inhibition by pyroph (NcCAR [1]): these results indicate the inhibition of NcCAR by the co‐product pyrophosphate

Molecule: NcCAR (Neurospora crassa OR74A)
Km (O=C(O)c1ccc2c(c1)OCO2): 173 ± 22 µM
kcat (O=C(O)c1ccc2c(c1)OCO2): 7.46 s⁻¹

Km (NcCAR [2]): 445 ± 50 µM
Molecule: O=C(O)/C=C/c1ccccc1 [1a, cinnamic acid]
